Laboratory results taken from ChEMBL document CHEMBL1201862, “PubChem BioAssay data set” (2004).
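Assay format: 96-well plates, 48-hour exposure. Abbreviation: GI50, concentration required for 50% inhibition of growth.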 Activity calls are given as the source filed them. Rule as the data show it: active = GI50 up to about 1.1 µM and inactive = higher.

Tests used:
Assay in all cases: NCI tumour cell line growth inhibition, 48 h
SK-MEL-2 = system: SK-MEL-2
NCI-H23 = system: NCI-H23
NCI/ADR-RES = system: NCI/ADR-RES
UACC-257 = system: UACC-257
SR = system: SR
HCT-15 = system: HCT-15
SN12C = system: SN12C
NCI-H522 = system: NCI-H522
MDA-MB-231 = system: MDA-MB-231
COLO 205 = system: COLO 205
MDA-MB-435 = system: MDA-MB-435
HCC 2998 = system: HCC 2998
U-251 = system: U-251
NCI-H460 = system: NCI-H460
HCT-116 = system: HCT-116
SK-MEL-5 = system: SK-MEL-5
Malme-3M = system: Malme-3M
TK-10 = system: TK-10
SF-295 = system: SF-295
UACC-62 = system: UACC-62
DU-145 = system: DU-145
MDA-N = system: MDA-N
CAKI-1 = system: CAKI-1
CCRF-CEM = system: CCRF-CEM
ACHN = system: ACHN
SNB-19 = system: SNB-19
A549 = system: A549
SW-620 = system: SW-620
HL-60 = system: HL-60
RPMI-8226 = system: RPMI-8226
PC-3 = system: PC-3
Hs-578T = system: Hs-578T
OVCAR-8 = system: OVCAR-8
SK-MEL-28 = system: SK-MEL-28
OVCAR-3 = system: OVCAR-3
KM12 = system: KM12
HT-29 = system: HT-29
MOLT-4 = system: MOLT-4
SF-268 = system: SF-268
UO-31 = system: UO-31
M14 = system: M14
HOP-62 = system: HOP-62
EKVX = system: EKVX
BT-549 = system: BT-549
IGROV-1 = system: IGROV-1
SK-OV-3 = system: SK-OV-3
LOX IMVI = system: LOX IMVI
OVCAR-5 = system: OVCAR-5
786-0 = system: 786-0
NCI-H226 = system: NCI-H226
MCF7 = system: MCF7
SF-539 = system: SF-539
A498 = system: A498
SNB-75 = system: SNB-75
HOP-92 = system: HOP-92
T47D = system: T47D
OVCAR-4 = system: OVCAR-4
RXF 393 = system: RXF 393
K562 = system: K562

N#Cc1ccc(Nc2nc3[nH]cnc3c(=O)[nH]2)cc1
GI50 (SK-MEL-2): > 100 µM (inactive)
GI50 (NCI-H23): > 100 µM (inactive)
GI50 (NCI/ADR-RES): > 100 µM (inactive)
GI50 (UACC-257): > 100 µM (inactive)
GI50 (SR): > 100 µM (inactive)
GI50 (HCT-15): > 100 µM
GI50 (SN12C): > 100 µM (inactive)
GI50 (NCI-H522): > 100 µM (inactive)
GI50 (MDA-MB-231): > 100 µM (inactive)
GI50 (COLO 205): > 100 µM (inactive)
GI50 (MDA-MB-435): > 100 µM (inactive)
GI50 (HCC 2998): > 100 µM (inactive)
GI50 (U-251): > 100 µM (inactive)
GI50 (NCI-H460): > 100 µM (inactive)
GI50 (HCT-116): > 100 µM (inactive)
GI50 (SK-MEL-5): > 100 µM (inactive)
GI50 (Malme-3M): > 100 µM (inactive)
GI50 (TK-10): > 100 µM (inactive)
GI50 (SF-295): > 100 µM (inactive)
GI50 (UACC-62): > 100 µM (inactive)
GI50 (DU-145): > 100 µM (inactive)
GI50 (MDA-N): > 100 µM (inactive)
GI50 (CAKI-1): > 100 µM (inactive)
GI50 (CCRF-CEM): > 100 µM (inactive)
GI50 (ACHN): > 100 µM (inactive)
GI50 (SNB-19): > 100 µM (inactive)
GI50 (A549): > 100 µM (inactive)
GI50 (SW-620): > 100 µM (inactive)
GI50 (HL-60): > 100 µM (inactive)
GI50 (RPMI-8226): > 100 µM (inactive)
GI50 (PC-3): > 100 µM (inactive)
GI50 (Hs-578T): > 100 µM (inactive)
GI50 (OVCAR-8): > 100 µM (inactive)
GI50 (SK-MEL-28): > 100 µM (inactive)
GI50 (OVCAR-3): > 100 µM (inactive)
GI50 (KM12): > 100 µM (inactive)
GI50 (HT-29): > 100 µM (inactive)
GI50 (MOLT-4): > 100 µM (inactive)
GI50 (SF-268): > 100 µM (inactive)
GI50 (UO-31): > 100 µM (inactive)
GI50 (M14): > 100 µM (inactive)
GI50 (HOP-62): > 100 µM (inactive)
GI50 (EKVX): > 100 µM (inactive)
GI50 (BT-549): > 100 µM (inactive)
GI50 (IGROV-1): > 100 µM (inactive)
GI50 (SK-OV-3): > 100 µM (inactive)
GI50 (LOX IMVI): > 100 µM (inactive)
GI50 (OVCAR-5): > 100 µM (inactive)
GI50 (786-0): > 100 µM (inactive)
GI50 (NCI-H226): > 100 µM (inactive)
GI50 (MCF7): > 100 µM (inactive)
GI50 (SF-539): > 100 µM (inactive)
GI50 (A498): > 100 µM (inactive)
GI50 (SNB-75): > 100 µM (inactive)
GI50 (HOP-92): > 100 µM (inactive)
GI50 (T47D): > 100 µM (inactive)
GI50 (OVCAR-4): > 100 µM (inactive)

O=C1c2ccccc2C2C1C(c1ccccc1)C1(Cc3ccccc3C1=O)C2c1ccccc1 (stereo not drawn)
GI50 (SK-MEL-2): > 100 µM (inactive)
GI50 (NCI-H23): > 100 µM (inactive)
GI50 (NCI/ADR-RES): > 100 µM (inactive)
GI50 (UACC-257): > 100 µM (inactive)
GI50 (SR): 7.57 µM (inactive)
GI50 (HCT-15): > 100 µM
GI50 (SN12C): > 100 µM (inactive)
GI50 (NCI-H522): 20.5 µM (inactive)
GI50 (MDA-MB-231): 4.72 µM (inactive)
GI50 (COLO 205): > 100 µM (inactive)
GI50 (MDA-MB-435): > 73.6 µM (inactive)
GI50 (HCC 2998): > 46.8 µM (inactive)
GI50 (U-251): > 100 µM (inactive)
GI50 (NCI-H460): > 67 µM (inactive)
GI50 (HCT-116): 2.2 µM (inactive)
GI50 (SK-MEL-5): > 55.8 µM (inactive)
GI50 (Malme-3M): > 100 µM (inactive)
GI50 (TK-10): > 100 µM (inactive)
GI50 (SF-295): > 29.6 µM (inactive)
GI50 (UACC-62): 10.1 µM (inactive)
GI50 (DU-145): > 100 µM (inactive)
GI50 (MDA-N): 4.28 µM (inactive)
GI50 (CCRF-CEM): 4.85 µM (inactive)
GI50 (RXF 393): > 100 µM (inactive)
GI50 (ACHN): > 100 µM (inactive)
GI50 (SNB-19): > 100 µM (inactive)
GI50 (A549): > 100 µM (inactive)
GI50 (SW-620): > 100 µM (inactive)
GI50 (HL-60): 3.67 µM (inactive)
GI50 (PC-3): 12.5 µM (inactive)
GI50 (Hs-578T): > 100 µM (inactive)
GI50 (OVCAR-8): > 100 µM (inactive)
GI50 (SK-MEL-28): > 100 µM (inactive)
GI50 (OVCAR-3): > 100 µM (inactive)
GI50 (KM12): > 100 µM (inactive)
GI50 (HT-29): 14.8 µM (inactive)
GI50 (MOLT-4): 3.58 µM (inactive)
GI50 (K562): 5.53 µM (inactive)
GI50 (SF-268): > 100 µM (inactive)
GI50 (UO-31): > 29.8 µM (inactive)
GI50 (M14): > 100 µM (inactive)
GI50 (HOP-62): > 100 µM (inactive)
GI50 (EKVX): > 100 µM (inactive)
GI50 (BT-549): > 100 µM (inactive)
GI50 (IGROV-1): 11.7 µM (inactive)
GI50 (SK-OV-3): > 100 µM (inactive)
GI50 (LOX IMVI): 21.6 µM (inactive)
GI50 (OVCAR-5): > 100 µM (inactive)
GI50 (786-0): > 100 µM (inactive)
GI50 (NCI-H226): > 100 µM (inactive)
GI50 (MCF7): > 31.7 µM (inactive)
GI50 (SF-539): > 100 µM (inactive)
GI50 (SNB-75): 30.4 µM (inactive)
GI50 (HOP-92): > 100 µM (inactive)
GI50 (T47D): 11.4 µM (inactive)
GI50 (OVCAR-4): > 100 µM (inactive)
